According to publication PMC9101188, “Human α-Defensin-6 Neutralizes Clostridioides difficile Toxins TcdA and TcdB by Direct Binding” (International Journal of Molecular Sciences, 2022):

Assays:
TcdB glucosyltransferase = experiment: UDP-Glo glucosyltransferase assay; type: biochemical, C. difficile VPI 10463; details: TcdB 200 pM, recombinant Rac1 5 µM, UDP-glucose 100 µM, 1 h, 37 °C, pH 7.5, luminescence (n ≥ 3)
Protocol: The flow rate was 25 µL/min. […] A representative gel is shown (n = 2). […] GAPDH served as the loading control. A representative Western blot is shown.
UDP-Glo™ Glucosyltransferase assay with UDP-Glucose (Promega Corporation, Madison, WI, USA) was performed according to the manufacturer’s protocol. Briefly, TcdB (200 pM) was incubated in glucosylation buffer (50 mM HEPES, 100 mM KCl, 2 mM MgCl2, 1 mM MnCl2, 100 mg/L BSA, pH 7.5) with various concentrations of the respective inhibitors in a final volume of 40 µL. 5 µM recombinant Rac1 was included in the samples as a substrate. […] Castanospermine (10 mM, Santa Cruz Biotechnology, Dallas, TX, USA) served as control for inhibition of glucosyltransferase activity of TcdB. To stop the reaction, three times 10 µL of each sample were transferred to a white half area 96 well microplate (Greiner Bio-One International GmbH, Kremsmünster, Austria) combined with 10 µL of UDP Detection Reagent and mixed at 1000 rpm for 30 s on a plate shaker (Titramax 1000, Heidolph Instruments GmbH & Co. KG, Schwabach, Germany). Luminescence was recorded after 15–60 min via a Tecan infinite M1000 Pro plate reader (Tecan, Männdorf, Switzerland) with an integration time of 750 ms.

TcdB-DL488 = molecular target: T1, TcdB-DL488 (Clostridioides difficile, UniProt P18177); experiment: Aggregation of TcdB-DL488 over time in the absence of cells (fluorescence microscopy); set-up: species or system C. difficile VPI 10463; details: α-def-6 6 µM, TcdB-DL488 30 nM in PBS, 37 °C
T1 construct: The native toxins TcdA and TcdB from C. difficile VPI 10463 were expressed and purified; made in house; host or cells: C. difficile VPI 10463 (inferred from "native toxins")
Protocol: (§1) Cells were fixed and permeabilized. […] Scale bars correspond to 50 µm. […] TcdB was detected.
Simultaneously the same volume of PBS was exposed to DyLight^TM 488 NHS-Ester to serve as a negative control in experiments. To remove free fluorescence dye, the samples were rebuffered by passing through Zeba^TM Spin Desalting Columns via centrifugation.
Aggregation was allowed to proceed for 30 min at 37 °C. Images were taken every second for the first 5 min and every 10 s for additional 25 min. Images were processed using ImageJ.

Vero cells [1] = experiment: Aggregation of TcdB-DL488 and cell morphology in Vero cells; type: cell-based, African green monkey; details: TcdB-DL488 22 nM + α-def-6 6 µM, 0.5 h, 37 °C (n = 2)
Protocol: as §1
Cells were grown in their respective media under humidified conditions at 37 °C and 5% CO2. Vero cells (African green monkey kidney cells; DSMZ, Braunschweig, Germany) were maintained in Gibco minimum essential medium (MEM; Thermo Fisher Scientific, Waltham, MA, USA) supplemented with 10% fetal calf serum (FCS; Thermo Fisher Scientific, Waltham, MA, USA), 1 mM sodium pyruvate (Thermo Fisher Scientific, Waltham, MA, USA), 2 mM L-glutamine (PAN-Biotech, Aidenbach, Germany), 0.1 mM non-essential amino acids (Thermo Fisher Scientific, Waltham, MA, USA) and 100 U/mL penicillin and 100 µg/mL streptomycin (both Thermo Fisher Scientific, Waltham, MA, USA). CaCo-2 cells (human epithelial colorectal adenocarcinoma cells, HTB-37; ATCC, Manassas, VA, USA) were cultured in Gibco Dulbecco’s Modified Eagle Medium (DMEM; Thermo Fisher Scientific, Waltham, MA, USA) plus 10% FCS, 1 mM sodium pyruvate, 0.1 mM non-essential amino acids and 100 U/mL penicillin and 100 µg/mL streptomycin.
Simultaneously the same volume of PBS was exposed to DyLight^TM 488 NHS-Ester to serve as a negative control in experiments. To remove free fluorescence dye, the samples were rebuffered by passing through Zeba^TM Spin Desalting Columns via centrifugation. […]

Rac1 [2] = type: cell-based, African green monkey
Rac1 [3] = type: cell-based, African green monkey; remark: listed apart in the source
CaCo-2 monolayer [4] = type: cell-based, human
TcdB [5] = details: SPR, 2400 RUs biotinylated TcdB on streptavidin chip; α-def-6 0.1 to 6 µM; 10 mM HEPES, 150 mM NaCl, 50 µM EDTA, 0.005% Tween 20, pH 7.0; 25 µL/min, 25 °C; 4 min injection
Protocol: (A) 2400 RUs of biotinylated TcdB were immobilized via streptavidin-biotin binding onto a streptavidin sensor chip, and α-def-6 (concentrations as indicated) was applied to the chip for 4 min followed by a dissociation phase with a flow of running buffer. A solution of 6 µM of α-def-6 was injected twice to assess reproducibility, and β-def-1 (6 µM) served as a control. The flow rate was 25 µL/min.
TcdB was biotinylated via EZ-Link^TM Sulfo-NHS-Biotin (Thermo Fisher Scientific, Waltham, MA, USA) according to the manufacturer’s protocol. Briefly, TcdB was incubated with Sulfo-NHS-Biotin for 30 min at room temperature (RT). To remove the excess non-reacted biotin, TcdB was rebuffered with a Zeba^TM Spin Desalting Column (Thermo Fisher Scientific, Waltham, MA, USA). The successful biotinylation was verified via Western blotting and detection with peroxidase-conjugated streptavidin (1:2500, F. Hoffmann-La Roche AG, Basel, Switzerland).
The binding of α-def-6 to biotinylated TcdB was analyzed via surface plasmon resonance spectroscopy (SPR) with a Reichert SPR7500DC SPR spectrometer (Reichert Technologies, Buffalo, NY, USA). All analytes were dialyzed in running buffer (10 mM HEPES, 150 mM NaCl, 50 µM EDTA, 0.005% (v/v) Tween®20, pH 7.0) beforehand. Experiments were performed with a flow rate of 25 µL/min at 25 °C. […]

TcdB [6] = details: TcdB 50 ng, α-def-6 6 µM, PBS, 0.5 h, 37 °C (n = 3)
Protocol: (C) TcdB (50 ng) was incubated with or without α-def-6 (6 µM) in PBS for 0.5 h at 37 °C. Samples were centrifuged to segregate aggregates and divided into a supernatant (S) and pellet (P) fraction. Fractions were subjected to SDS-PAGE followed by Western blotting. TcdB was detected.
The TcdB stock was centrifuged for 20 min at 14,000 rpm and 4 °C to remove any preformed aggregates. TcdB (50 ng) was incubated in the absence or presence of α-def-6 (6 µM) for 30 min at 37 °C in a final volume of 35 µL PBS. The samples were centrifuged as before to segregate possible aggregates and subsequently separated into a supernatant (30 µL) and pellet fraction (5 µL). The pellet fraction was resuspended with 25 µL PBS to a final volume of 30 µL. Each fraction (30 µL) was then subjected to SDS-PAGE (8% polyacrylamide gel) and Western blotting. TcdB was detected using an anti-TcdB-antibody (1:1000, #ab270452, Abcam, Cambridge, UK) followed by an HRP-conjugated mouse anti-rabbit antibody (1:2500; #sc-2357; Santa Cruz Biotechnology, Dallas, TX, USA).

Vero cells [7] = system: Vero cells
CaCo-2 cells [8] = system: CaCo-2 cells
CaCo-2 cells [9] = system: CaCo-2 cells; remark: listed apart in the source
CaCo-2 cells [10] = system: CaCo-2 cells; remark: listed apart in the source
CaCo-2 monolayer [11] = system: CaCo-2 monolayer
zebrafish embryos = details: in vivo
SARS-CoV-2 = details: ref [55]; cited from earlier work
Text: There is increasing evidence that α-def-6 represents an outlier among the α-defensins, which is also noticeable in the context of bacterial toxins. Anti-toxin activities have already been described for several α-defensins.

T1 sequence (P18177 whole entry): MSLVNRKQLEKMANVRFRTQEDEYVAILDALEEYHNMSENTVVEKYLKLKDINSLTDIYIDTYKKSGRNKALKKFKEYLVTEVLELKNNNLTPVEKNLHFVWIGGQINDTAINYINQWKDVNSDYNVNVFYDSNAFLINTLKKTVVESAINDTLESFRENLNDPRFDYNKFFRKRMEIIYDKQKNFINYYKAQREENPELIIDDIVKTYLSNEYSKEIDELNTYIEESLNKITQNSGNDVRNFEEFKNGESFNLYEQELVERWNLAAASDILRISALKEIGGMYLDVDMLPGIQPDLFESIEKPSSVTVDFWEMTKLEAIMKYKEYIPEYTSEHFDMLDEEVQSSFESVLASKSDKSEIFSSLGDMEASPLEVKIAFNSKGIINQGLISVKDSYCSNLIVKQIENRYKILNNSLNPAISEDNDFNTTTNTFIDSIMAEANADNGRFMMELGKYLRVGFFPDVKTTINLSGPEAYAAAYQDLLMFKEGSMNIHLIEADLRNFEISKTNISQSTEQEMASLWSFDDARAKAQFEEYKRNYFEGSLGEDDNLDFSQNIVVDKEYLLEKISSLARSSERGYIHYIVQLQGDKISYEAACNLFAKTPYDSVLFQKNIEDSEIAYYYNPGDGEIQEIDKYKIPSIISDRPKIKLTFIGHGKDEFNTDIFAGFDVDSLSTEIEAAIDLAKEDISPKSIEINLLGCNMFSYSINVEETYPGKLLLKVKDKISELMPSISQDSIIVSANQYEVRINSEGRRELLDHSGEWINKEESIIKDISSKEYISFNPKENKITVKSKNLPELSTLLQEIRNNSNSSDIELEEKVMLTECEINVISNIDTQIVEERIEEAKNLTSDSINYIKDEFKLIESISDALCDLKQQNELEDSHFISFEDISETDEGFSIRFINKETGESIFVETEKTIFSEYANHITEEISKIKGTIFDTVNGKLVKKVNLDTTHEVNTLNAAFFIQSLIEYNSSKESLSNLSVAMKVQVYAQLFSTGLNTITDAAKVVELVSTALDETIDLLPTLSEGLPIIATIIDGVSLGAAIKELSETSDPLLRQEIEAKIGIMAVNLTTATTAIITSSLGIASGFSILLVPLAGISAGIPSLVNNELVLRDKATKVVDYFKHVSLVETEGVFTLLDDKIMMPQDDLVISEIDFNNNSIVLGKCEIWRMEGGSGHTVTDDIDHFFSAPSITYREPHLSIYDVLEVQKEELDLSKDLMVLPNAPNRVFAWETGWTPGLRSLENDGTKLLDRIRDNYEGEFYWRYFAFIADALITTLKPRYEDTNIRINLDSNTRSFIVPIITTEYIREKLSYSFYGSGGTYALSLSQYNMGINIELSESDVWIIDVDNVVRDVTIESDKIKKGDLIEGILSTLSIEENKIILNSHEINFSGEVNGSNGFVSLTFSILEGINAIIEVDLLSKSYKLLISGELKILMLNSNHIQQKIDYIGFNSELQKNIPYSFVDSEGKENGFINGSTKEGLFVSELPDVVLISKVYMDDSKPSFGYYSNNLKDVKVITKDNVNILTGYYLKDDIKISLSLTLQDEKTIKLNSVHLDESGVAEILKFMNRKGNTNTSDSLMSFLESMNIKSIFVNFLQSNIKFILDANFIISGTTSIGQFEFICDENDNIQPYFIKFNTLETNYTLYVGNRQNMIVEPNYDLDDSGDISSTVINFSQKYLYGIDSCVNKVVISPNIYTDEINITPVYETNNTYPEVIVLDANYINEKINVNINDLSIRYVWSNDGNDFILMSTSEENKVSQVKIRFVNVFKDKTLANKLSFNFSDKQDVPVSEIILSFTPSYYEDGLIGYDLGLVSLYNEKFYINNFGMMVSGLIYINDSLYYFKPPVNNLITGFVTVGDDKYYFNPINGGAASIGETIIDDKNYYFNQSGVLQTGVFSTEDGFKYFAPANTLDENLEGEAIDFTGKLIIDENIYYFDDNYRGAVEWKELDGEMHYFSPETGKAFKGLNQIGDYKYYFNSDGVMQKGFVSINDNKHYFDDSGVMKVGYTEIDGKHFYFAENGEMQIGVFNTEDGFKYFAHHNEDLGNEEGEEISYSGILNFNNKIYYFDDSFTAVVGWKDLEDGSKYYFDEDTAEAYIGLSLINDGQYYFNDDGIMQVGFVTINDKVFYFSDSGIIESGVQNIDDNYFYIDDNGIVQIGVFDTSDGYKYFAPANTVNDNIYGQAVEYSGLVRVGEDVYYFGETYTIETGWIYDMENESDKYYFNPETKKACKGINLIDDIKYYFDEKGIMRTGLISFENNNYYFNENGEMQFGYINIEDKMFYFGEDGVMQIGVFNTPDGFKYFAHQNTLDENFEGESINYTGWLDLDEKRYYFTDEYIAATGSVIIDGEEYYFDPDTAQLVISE

For CC[C@H](C)[C@@H]1NC(=O)CNC(=O)[C@H](CCSC)NC(=O)[C@H](C(C)C)NC(=O)[C@H]([C@@H](C)O)NC(=O)[C@@H]2CSSC[C@@H]3NC(=O)[C@H](Cc4c[nH]cn4)NC(=O)[C@@H](NC(=O)[C@@H](NC(=O)[C@H](Cc4ccccc4)NC(=O)[C@H](C)N)[C@@H](C)O)CSSC[C@@H](C(=O)N[C@@H](CC(C)C)C(=O)O)NC(=O)[C@H](CSSC[C@H](NC(=O)[C@H](CO)NC(=O)[C@H](CCCNC(=N)N)NC(=O)[C@H](CCCNC(=N)N)NC3=O)C(=O)N[C@@H](Cc3ccc(O)cc3)C(=O)N[C@@H](CO)C(=O)N[C@@H]([C@@H](C)O)C(=O)N[C@@H](CCC(=O)O)C(=O)N[C@@H](Cc3ccc(O)cc3)C(=O)N[C@@H](CO)C(=O)N[C@@H](Cc3ccc(O)cc3)C(=O)NCC(=O)N[C@@H]([C@@H](C)O)C(=O)N2)NC(=O)[C@H](Cc2ccccc2)NC(=O)[C@H](CCCNC(=N)N)NC(=O)[C@H](Cc2c[nH]cn2)NC(=O)[C@H](CC(N)=O)NC1=O [α-def-6], the “inhibition of glucosyltransferase activity of TcdB” value (TcdB glucosyltransferase) was “not able to inhibit glucosyltransferase activity”, the “time of formation of toxin-defensin aggregates” value (TcdB-DL488) was “within a few seconds to minutes” and the “formation of toxin-defensin complexes” value (TcdB-DL488; 0.5 h, no cells (n ≥ 2)) was “very fast and distinct formation of large toxin-defensin complexes”. The “morphological changes of TcdB-DL488-treated cells” value (Vero cells [1]) was “no morphological changes”, the “toxin-defensin aggregates in the presence of cells” value (Vero cells [1]) was “toxin-defensins-aggregates were also visible” and the “glucosylation of Rac1 by TcdB” value (Rac1 [2]) was “clearly less Rac1 was glucosylated”. The “glucosylation of Rac1 in intact cells” value (Rac1 [3]) was “less Rac1 was glucosylated”, the “TEER, TcdA” value (CaCo-2 monolayer [4]) was “clear delay in TEER-reduction” and the “interaction with immobilized TcdB” value (TcdB [5]) was “direct, concentration-dependent interaction”. For the same compound, the “shift of TcdB to pellet fraction” value (TcdB [6]) was “shift of TcdB from the supernatant to the pellet fraction”, the “inhibition of toxin effects on cells, TcdB” value (Vero cells [7]) was “clear inhibition” and the “protection of cells against TcdB” value (Vero cells [7]) was “almost complete protection”. The “reduction of the amount of rounded cells” value (Vero cells [7]) was “clear concentration-dependent reduction of the amount of rounded cells”, the IC50 (Vero cells [7]; 5 h) was roughly 500 nM and the “amount of rounded CaCo-2 cells, TcdA” value (CaCo-2 cells [8]) was “reduced amount of rounded CaCo-2 cells was visible for at least 6 h”. For the same compound, the “amount of rounded CaCo-2 cells, TcdB” value (CaCo-2 cells [9]) was “reduced amount of rounded CaCo-2 cells was visible for at least 6 h”, the “amount of rounded CaCo-2 cells, TcdA + TcdB” value (CaCo-2 cells [10]) was “reduced amount of rounded CaCo-2 cells was visible for at least 6 h” and the “TEER, TcdB” value (CaCo-2 monolayer [11]) was “clear delay in TEER-reduction”. The “cytotoxic effects on the monolayer, TcdB” value (CaCo-2 monolayer [11]) was “time-dependent inhibition of the cytotoxic effects on the monolayer”, the “effect on TcdB-induced cytotoxicity and cardiotoxicity” value (zebrafish embryos) was “very efficiently reversed both the cytotoxic and cardiotoxic effects of TcdB” and the “toxicity of α-def-6 alone” value (zebrafish embryos) was “did not show any toxicity”. The “prevention of infection of cells with SARS-CoV-2” value (SARS-CoV-2) was “cannot prevent the infection of cells with SARS-CoV-2”.
